Experimental data: ChEMBL document CHEMBL4219248, “Design, in silico prioritization and biological profiling of apoptosis-inducing lactams amenable by the Castagnoli-Cushman reaction” (Bioorg Med Chem, 2018)

What was measured:
HCT-116 [1] = assay: Induction of apoptosis in human HCT116 p53+ cells at 5 uM by Annexin V-FITC staining-based flow cytometric analysis relative to Nutlin-3a; format: functional
U2OS [2] = assay: Cytotoxicity against human U2OS cells harboring p53-dependent EGFP reporter gene assessed as reduction in cell viability at 5 uM after 48 hrs; format: cell-based
HCT-116 [3] = assay: Antiproliferative activity against human HCT116 p53+/+ cells assessed as growth inhibition after 24 hrs by EdU/Hoechst 33342 staining-based fluorescence analysis; format: functional; settings: HCT-116, 24 h
HCT-116 [4] = assay: Antiproliferative activity against human HCT116 p53-/- cells assessed as growth inhibition after 24 hrs by EdU/Hoechst 33342 staining-based fluorescence analysis; format: functional; settings: HCT-116, 24 h
U2OS [5] = assay: Cytotoxicity against human U2OS cells harboring p53-dependent EGFP reporter gene assessed as reduction in cell viability at 30 uM after 48 hrs; format: cell-based

| GI50 (HCT-116 [3]) [µM] | GI50 (HCT-116 [4]) [µM] | SMILES | Activity (HCT-116 [1]) [%] | Activity (U2OS [2]) | Activity (U2OS [5]) |
| --- | --- | --- | --- | --- | --- |
|  |  | COCCN(Cc1ccc(N(C)C)cc1)C(=O)[C@H]1CC(=O)N(c2ccc(F)c(F)c2)[C@@H]1c1ccc(Cl)cc1 (racemic) | 19.2 | Toxic |  |
| 30 | 80 | Cc1cccc(CNC(=O)[C@@H]2[C@@H](c3ccc(Cl)cc3)N(c3ccc(Cl)cc3)C(=O)CN2C(=O)c2ccncc2)c1 (racemic) | 63.4 | Toxic |  |
|  |  | Cc1cccc([C@@H]2[C@@H](C(=O)NCc3cccnc3)OCC(=O)N2c2ccc(F)c(Cl)c2)c1 (racemic) | 12.4 | Toxic |  |
|  |  | CCOc1cccc(CNC(=O)[C@H]2OCC(=O)N(c3ccc(F)c(F)c3)[C@@H]2c2cccc(C)c2)c1 (mixture of isomers) | 10.3 | Toxic |  |
| 8 | 29 | O=C(NCc1ccc2c(c1)OCO2)[C@H]1CC(=O)N(c2ccc(F)c(Cl)c2)[C@@H]1c1ccc(Cl)cc1 (racemic) | 90.7 | Toxic |  |
|  |  | Cc1cccc([C@@H]2[C@@H](C(=O)NCCc3ccc(Cl)cc3)OCC(=O)N2c2ccc(F)c(Cl)c2)c1 (racemic) | 14.3 | Toxic |  |
|  |  | Cc1cccc([C@@H]2[C@@H](C(=O)NCc3ccccc3F)OCC(=O)N2c2ccc(F)c(Cl)c2)c1 (racemic) | 18.9 | Toxic |  |
|  |  | Cc1ccc(CNC(=O)[C@H]2OCC(=O)N(c3ccc(F)c(Cl)c3)[C@@H]2c2cccc(F)c2)cc1 (racemic) | 20.1 | Toxic |  |
|  |  | COc1ccc(N2C(=O)CN(C(=O)c3ccncc3)[C@H](C(=O)NCc3cccc(C)c3)[C@H]2c2ccc(Cl)cc2)cc1 (racemic) | 11.1 | Toxic |  |
|  |  | CCOc1cccc(CNC(=O)[C@H]2OCC(=O)N(c3ccccc3)[C@@H]2c2cccc(F)c2)c1 (racemic) | 3.2 | Toxic |  |
|  |  | COCCCN(Cc1ccc(N2CCCC2)cc1)C(=O)[C@H]1CC(=O)N(c2cccc(Cl)c2)[C@@H]1c1ccc(Cl)cc1 (relative stereo) | 24.1 | Toxic |  |
| 12 | 40 | O=C(NCc1ccc(Cl)cc1)[C@H]1OCC(=O)N(c2cccc(Cl)c2)[C@@H]1c1cccc(C(F)(F)F)c1 (relative stereo) | 84.6 | Toxic |  |
|  |  | Cc1cccc([C@@H]2[C@@H](C(=O)NCc3ccccc3)OCC(=O)N2c2ccc(F)c(Cl)c2)c1 (racemic) | 3.7 | Toxic |  |
|  |  | Cc1ccc(CNC(=O)[C@H]2OCC(=O)N(c3ccc(F)c(Cl)c3)[C@@H]2c2cccc(C)c2)cc1 (racemic) | 9.5 | Toxic |  |
|  |  | O=C(NCc1ccc2c(c1)OCO2)[C@H]1CC(=O)N(c2ccc(F)c(F)c2)[C@@H]1c1ccc(Cl)cc1 (mixture of isomers) | 16 | Toxic |  |
|  |  | CN(C)c1ccc([C@@H]2[C@@H](C(=O)NCc3ccccc3CN3CCCC3=O)OCC(=O)N2c2ccc(Cc3ccncc3)cc2)cc1 (racemic) | 0 | Toxic |  |
|  |  | COc1ccc(CN(CCCN2CCOCC2)C(=O)[C@H]2OCC(=O)N(c3ccc(Cc4ccncc4)cc3)[C@@H]2c2ccc(Cl)cc2)cc1 (racemic) | 1.6 | Toxic |  |
|  |  | Cc1cccc([C@@H]2[C@@H](C(=O)NCc3ccc(F)cc3)OCC(=O)N2c2ccc(F)c(Cl)c2)c1 (racemic) | 17 | Toxic |  |
| 19 | 65 | O=C(NCc1ccc2c(c1)OCO2)[C@H]1CC(=O)N(c2cccc(Cl)c2)[C@@H]1c1cccc(F)c1 (racemic) | 79.5 | Toxic |  |
|  |  | COCCCN(Cc1ccc(N(C)C)cc1)C(=O)[C@H]1OCC(=O)N(c2ccc(Cc3ccncc3)cc2)[C@@H]1c1ccc(Cl)cc1 (racemic) | 11.1 | Toxic |  |
|  |  | CC(C)Oc1ccc([C@@H]2[C@@H](C(=O)NCc3ccc(-n4ccnc4)cc3)CCC(=O)N2c2ccc(OC3CCCC3)cc2)cc1 (relative stereo) | 35.2 | Toxic |  |

| GI50 (HCT-116 [3]) [µM] | GI50 (HCT-116 [4]) [µM] | SMILES | Activity (HCT-116 [1]) [%] | Activity (U2OS [2]) | Activity (U2OS [5]) |
| --- | --- | --- | --- | --- | --- |
| 7 | 32 | O=C(NCc1ccccc1CN1CCCC1=O)[C@H]1CC(=O)N(c2ccc(F)c(Cl)c2)[C@@H]1c1ccc(Cl)cc1 (racemic) | 123.9 | Toxic |  |
| 7 | 33 | CC(C)[C@@H](CS(=O)(=O)C(C)C)N1C(=O)[C@@](C)(CC(=O)O)C[C@H](c2cccc(Cl)c2)[C@H]1c1ccc(Cl)cc1 [NAVTEMADLIN] | 112 |  |  |
|  |  | CCOc1ccc(CNC(=O)[C@H]2OCC(=O)N(c3ccc(F)c(F)c3)[C@@H]2c2cccc(C)c2)cc1 (mixture of isomers) | 8.5 | Toxic |  |
|  |  | C=CCOc1ccc([C@@H]2[C@@H](C(=O)NCCc3ccc(OC)c(OC)c3)N(C(=O)c3cccc(F)c3)CC(=O)N2C)cc1OCC (racemic) | 0 | Toxic |  |
|  |  | Cc1cccc([C@@H]2[C@@H](C(=O)NCc3ccc(Cl)cc3)OCC(=O)N2c2ccc(F)c(F)c2)c1 (racemic) | 7.1 | Toxic |  |
| 6 | 38 | CC(C)(C)C[C@@H]1N[C@@H](C(=O)N[C@H]2CC[C@H](O)CC2)[C@H](c2cccc(Cl)c2F)[C@]12C(=O)Nc1cc(Cl)ccc12 [SAR-405838] | 115 |  |  |
|  |  | CCOc1cccc(CNC(=O)[C@H]2OCC(=O)N(c3ccc(F)c(Cl)c3)[C@@H]2c2cccc(F)c2)c1 (racemic) | 1.6 | Toxic |  |
|  |  | CC(C)Oc1ccc([C@@H]2[C@@H](C(=O)NCc3ccccc3CN3CCOCC3)CCC(=O)N2c2ccc(Cc3ccncc3)cc2)cc1 (mixture of isomers) | 1.6 | Toxic |  |
| 18 | 62 | COc1ccc(CNC(=O)[C@H]2OCC(=O)N(c3ccc(F)c(Cl)c3)[C@@H]2c2ccc(Cl)cc2)cc1 (racemic) | 85.3 | Toxic |  |
|  |  | Cc1cccc([C@@H]2[C@@H](C(=O)NCc3ccc(Cl)cc3)OCC(=O)N2c2ccc(F)c(Cl)c2)c1 (racemic) | 16.8 | Toxic |  |
|  |  | CCOc1ccc(CNC(=O)[C@H]2CC(=O)N(c3cccc(Cl)c3)[C@@H]2c2ccc(Cl)cc2)cc1 (racemic) | 27.2 | Toxic |  |
| 20 | 72 | O=C(NCc1ccc2c(c1)OCO2)[C@H]1OCC(=O)N(c2cccc(Cl)c2)[C@@H]1c1ccc(Cl)cc1 (racemic) | 66.5 | Toxic |  |
| 22 | 71 | COc1ccc(CNC(=O)[C@H]2CC(=O)N(c3ccc(F)c(Cl)c3)[C@@H]2c2ccc(Cl)cc2)c(OC)c1 (racemic) | 75 | Toxic |  |
| 26 | 81 | COc1cc(CNC(=O)[C@H]2CCC(=O)N(c3ccccc3)[C@@H]2c2ccc(Cl)cc2)ccc1OC(C)C (racemic) | 69.1 | Toxic |  |
| 9 | 29 | COc1ccc(C2=N[C@@H](c3ccc(Cl)cc3)[C@@H](c3ccc(Cl)cc3)N2C(=O)N2CCNC(=O)C2)c(OC(C)C)c1 [NUTLIN-3] |  |  | Toxic |
|  |  | O=C(NCc1ccc2c(c1)OCCO2)[C@H]1CC(=O)N(c2ccc(F)c(F)c2)[C@@H]1c1ccc(Cl)cc1 (racemic) | 16 | Toxic |  |
|  |  | Cc1cccc([C@@H]2[C@@H](C(=O)NCc3cccnc3)OCC(=O)N2c2ccc(F)c(F)c2)c1 (mixture of isomers) | 6.7 | Toxic |  |
|  |  | O=C(NCc1ccc(-n2ccnc2)cc1)[C@H]1OCC(=O)N(c2cccc(Cl)c2)[C@@H]1c1cccc(C(F)(F)F)c1 (racemic) | 39.3 | Toxic |  |
|  |  | COc1ccc(CNC(=O)[C@H]2OCC(=O)N(c3ccc(Cc4ccncc4)cc3)[C@@H]2c2ccc(Cl)cc2)cc1 (mixture of isomers) | 6.4 | Toxic |  |
|  |  | COc1ccc(CNC(=O)[C@H]2OCC(=O)N(c3cccc(Cl)c3)[C@@H]2c2cccc(F)c2)cc1 (racemic) | 0 | Toxic |  |
